Article PMC3892053, “Pharmacokinetic/pharmacodynamic modeling for the determination of a cimicoxib dosing regimen in the dog” (BMC Veterinary Research, 2013)
Values after ≈ are worked out from the molar mass of the structure shown. Where two headings read alike, the source gives them in different places.

Tested on: kaolin-induced paw inflammation
Assay: PK/PD modelling (indirect response models) of kaolin paw inflammation endpoints
Assay type: in vivo, dog
Details: for EC50 at 2 mg/kg / IC50 at 2 mg/kg: po; for EC50 at 2 mg/kg: read-out: EC50, body temperature
Experimental: Pharmacokinetic and PK/PD modeling were performed by least-squares regression analysis using WinNonlin Professional software (WinNonlin® software, version 4.0.1, Pharsight Corporation, Mountain View, Ca, USA). For PK analysis, individual plasma cimicoxib concentrations were fitted to polyexponential equations. The data points were weighted by the inverse of the squared-fitted value. The number of exponential (2 or 3) terms needed to obtain the best fit for each data set was determined by the Akaike’s information criteria and by inspecting the plot of residuals. A biexponential equation corresponding to a mono-compartmental model for extravascular administration with a lag-time was selected (Equation 1).
As the effect cimicoxib on the local temperature and paw oedema after inflammation were present but lower than the other effects, these endpoints were not used for the PK/PD analysis. […] Finally, four endpoints were considered as suitable for the PK/PD analysis aiming at modelling the relationship between cimicoxib plasma concentrations and its antipyretic and anti-inflammatory effects, namely: body temperature (antipyretic effect), creeping speed, vertical force of the paw and clinical lameness score (anti-inflammatory effects).
The selected PK/PD models were of the class of the indirect response models as proposed by Dayneka. In these models, the measured response (R) is assumed to result from factors controlling either the development (Kin) or the dissipation (Kout) of the response according to Equation 3.
where dR/dt is the rate of change of the response over time, Kin represents the zero-order rate constant for production of the response and Kout the first-order rate constant for loss of the response. The time development of measured response was modeled by a sigmoid-Emax (maximum stimulatory effect) or sigmoid-Imax (maximum inhibition effect) function (Hill models) that can be exerted either on Kin or Kout. […] The effect of cimicoxib on the central temperature was based on a model assuming that during the inflammation phase, thermogenesis is increased (increase in Kin) while thermolysis is reduced (reduction in Kout) until a new balance for central temperature is reached. The antipyretic effect of an NSAID consisted of an increase in thermolysis (increase of Kout) enabling the central temperature to return to its control values, according to Equation 4:
(4) dR/dT=Kin-Kout×1+Emax×C^n/EC50^n+C^n×R
For the creeping test consisting of crossing the tunnel more or less rapidly, an empirical model postulating that the dog’s speed (m.s^-1) is the result of a balance between its motivation to move forward (Kin) and a braking effect (Kout) associated with the severity of inflammation with a lower Kout in control conditions than during inflammation. During inflammation, pain increases the braking effect (i.e. increase Kout) and decreases the speed to cross the tunnel. The anti-inflammatory effect of cimicoxib consisted in reducing the pain (by decreasing Kout), which in turn increased the speed to cross the tunnel as described by Equation 5:
(5) dR/dT=Kin-Kout×1-Imax×C^n/IC50^n+C^n×R
For the vertical force measured with the force plate apparatus normalized by the weight of the dog (without units), Kin represents the ground reaction forces in control resting conditions and Kout represents the factors prompting the withdrawal of limb from the ground in the case of inflammation due to pain i.e. that Kout is increased in the case of inflammation. Thus, the anti-inflammatory effect of cimicoxib consisted in a reduction of pain (decrease of Kout) and the same model as for the creeping speed under the tunnel was used (see Equation 5).
During inflammation, Kin is increased and the effect of cimicoxib was modelled using a concentration-dependent inhibition of Kin, according to Equation 6:
(6) dR/dT=Kin×1-C^n/IC50^n+C^n-Kout×R

[1] = plasma concentration, oral 2 mg/kg, PM dogs, mean and range, 2 mg/kg

COc1ccc(-c2c(Cl)ncn2-c2ccc(S(N)(=O)=O)cc2)cc1F [cimicoxib] was tested, and the EC50 (Canis lupus familiaris, abstract, value matches EM dogs, read-out: plasma concentration corresponding to half the maximum of the indirect effect, body temperature) was 0.193 µg/mL (≈ 0.505 µM), the IC50 (Canis lupus familiaris, abstract, value matches EM dogs, read-out: plasma concentration corresponding to half the maximum of the indirect effect, creeping speed) was 0.239 µg/mL (≈ 0.626 µM) and the IC50 (Canis lupus familiaris, abstract, value matches EM dogs, read-out: plasma concentration corresponding to half the maximum of the indirect effect, ground reaction vertical force) was 0.161 µg/mL (≈ 0.422 µM). It also gave an IC50 (Canis lupus familiaris, abstract, value matches EM dogs, read-out: plasma concentration corresponding to half the maximum of the indirect effect, lameness score) of 0.284 µg/mL (≈ 0.744 µM), an EC50 at 2 mg/kg (Canis lupus familiaris, plasma concentration, oral 2 mg/kg, EM dogs, mean and range) of 0.193 µg/mL (≈ 0.506 µM) and an IC50 at 2 mg/kg (Canis lupus familiaris, plasma concentration, oral 2 mg/kg, EM dogs, mean and range, read-out: IC50, creeping speed) of 0.239 µg/mL (≈ 0.627 µM). It also gave an IC50 at 2 mg/kg (Canis lupus familiaris, plasma concentration, oral 2 mg/kg, EM dogs, mean and range, read-out: IC50, lameness score) of 0.284 µg/mL (≈ 0.745 µM), an IC50 at 2 mg/kg (Canis lupus familiaris, plasma concentration, oral 2 mg/kg, EM dogs, mean and range, read-out: IC50, vertical force) of 0.161 µg/mL (≈ 0.421 µM) and an EC50 at 2 mg/kg (Canis lupus familiaris, plasma concentration, oral 2 mg/kg, PM dogs, mean and range) of 0.473 µg/mL (≈ 1.24 µM). It also gave an IC50 at 2 mg/kg (Canis lupus familiaris, plasma concentration, oral 2 mg/kg, PM dogs, mean and range, read-out: IC50, creeping speed) of 0.345 µg/mL (≈ 0.902 µM), an IC50 at 2 mg/kg (Canis lupus familiaris, plasma concentration, oral 2 mg/kg, PM dogs, mean and range, read-out: IC50, lameness score) of 0.786 µg/mL (≈ 2.06 µM) and an IC50 at 2 mg/kg (Canis lupus familiaris, plasma concentration, oral 2 mg/kg, PM dogs, mean and range, read-out: IC50, vertical force) of 0.325 µg/mL (≈ 0.851 µM). The “Emax, body temperature” value (EM dogs, mean and range) was 0.04 [0.03, 0.06] no unit, the “Imax, creeping speed” value (EM dogs, mean and range) was 0.71 [0.38, 1.00] no unit and the “Imax, vertical force” value (EM dogs, mean and range) was 0.98 [0.93, 1.00] no unit. For the same molecule, the “Kin, body temperature” value (EM dogs, mean and range) was 41.30 [20.76, 84.13] °C.h^-1, the “Kin, creeping speed” value (EM dogs, mean and range) was 0.90 [0.15, 2.71] m.s^-1.h^-1 and the “Kin, lameness score” value (EM dogs, mean and range) was 5.34 [1.17, 16.87] score.h^-1. For the same molecule, the “Kin, vertical force” value (EM dogs, mean and range) was 0.09 [0.06, 0.10] normalised force.h^-1, the “Kout, body temperature” value (EM dogs, mean and range) was 1.04 [0.53, 2.10] h^-1 and the “Kout, creeping speed” value (EM dogs, mean and range) was 0.95 [0.24, 2.02] h^-1. The “Kout, lameness score” value (EM dogs, mean and range) was 1.08 [0.22, 3.54] h^-1, the “Kout, vertical force” value (EM dogs, mean and range) was 7.40 [3.21, 10.00] h^-1 and the “Emax, body temperature” value (PM dogs, mean and range) was 0.04 [0.03, 0.04] no unit. The “Imax, creeping speed” value (PM dogs, mean and range) was 0.70 [0.44, 0.87] no unit, the “Imax, vertical force” value (PM dogs, mean and range) was 0.97 [0.95, 0.99] no unit and the “Kin, body temperature” value (PM dogs, mean and range) was 45.84 [42.76, 49.19] °C.h^-1. The “Kin, creeping speed” value (PM dogs, mean and range) was 0.76 [0.36, 0.97] m.s^-1.h^-1, the “Kin, lameness score” value (PM dogs, mean and range) was 2.57 [0.70, 4.96] score.h^-1 and the “Kin, vertical force” value (PM dogs, mean and range) was 0.09 [0.07, 0.10] normalised force.h^-1. For the same molecule, the “Kout, body temperature” value (PM dogs, mean and range) was 1.17 [1.09, 1.25] h^-1, the “Kout, creeping speed” value (PM dogs, mean and range) was 1.07 [0.80, 1.47] h^-1 and the “Kout, lameness score” value (PM dogs, mean and range) was 0.509 [0.14, 0.99] h^-1. For the same molecule, the “Kout, vertical force” value (PM dogs, mean and range) was 8.47 [5.09, 9.99] h^-1, the “IC50, lameness score” value [1] was 785.8 [579.4, 916.1] ng/mL and the “IC50, vertical force” value [1] was 325.1 [235.3, 397.6] ng/mL.
